Values after ≈ are worked out from the molar mass of the structure shown. Active and inactive are the calls of the source. The rule behind the calls is not given here.
What was measured:
[1] = Stability in human plasma assessed as half-life at 10 uM measured upto 48 hrs by UPLC-MS/MS analysis; format: ADME, cell-free
[2] = Oral bioavailability in female CD-1 mouse at 10 mg/kg administered as 5% v/v NMP, 5% v/v solutol HS-15, 20% PEG 400 and 70% v/v normal saline formulation and measured after 24 hrs; format: ADME, organism-based; details: in vivo
[3] = molecular target: T1, Cereblon/Casein kinase I alpha (Homo sapiens, UniProt P48729+Q96SW2); test: PROTAC activity at CRBN/HiBiT-tagged CK1alpha in HEK293 cells transfected with LgBiT expression vector assessed as induction of CK1alpha degradation by measuring degradation rate at 10 uM measured after 24 hrs by luminescence based GloMax Discover assay; format: cell-based
Target sequence in this assay (P48729 2-337 limits assumed): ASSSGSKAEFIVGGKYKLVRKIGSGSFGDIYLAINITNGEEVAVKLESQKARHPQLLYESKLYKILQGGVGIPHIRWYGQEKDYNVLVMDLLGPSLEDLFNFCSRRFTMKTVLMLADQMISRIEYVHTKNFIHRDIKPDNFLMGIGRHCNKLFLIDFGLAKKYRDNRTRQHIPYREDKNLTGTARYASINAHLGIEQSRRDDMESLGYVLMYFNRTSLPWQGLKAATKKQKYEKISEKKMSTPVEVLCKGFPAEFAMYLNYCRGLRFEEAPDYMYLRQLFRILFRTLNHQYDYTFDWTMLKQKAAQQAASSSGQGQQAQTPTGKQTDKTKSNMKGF
Target sequence in this assay (Q96SW2 whole entry partner): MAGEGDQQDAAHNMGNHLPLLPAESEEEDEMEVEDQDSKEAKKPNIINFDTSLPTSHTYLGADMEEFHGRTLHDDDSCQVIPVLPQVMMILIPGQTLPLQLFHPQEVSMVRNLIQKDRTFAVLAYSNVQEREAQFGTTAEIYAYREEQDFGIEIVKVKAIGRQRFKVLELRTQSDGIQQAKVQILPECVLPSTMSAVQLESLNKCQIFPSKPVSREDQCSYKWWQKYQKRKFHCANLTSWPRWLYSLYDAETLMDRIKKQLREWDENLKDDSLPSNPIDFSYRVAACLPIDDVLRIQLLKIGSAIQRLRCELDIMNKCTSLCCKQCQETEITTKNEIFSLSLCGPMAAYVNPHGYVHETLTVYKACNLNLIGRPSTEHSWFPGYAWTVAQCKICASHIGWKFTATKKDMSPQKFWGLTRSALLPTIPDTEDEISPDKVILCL

[4] = Solubility of compound at pH 7.4 incubated for 18 hrs by UV-spectra analysis; format: physicochemical; details: buffer, pH 7.4, 18 h
[5] = molecular target: T1, Cereblon/Casein kinase I alpha; test: Binding affinity to Halo-tagged CRBN (unknown origin)/HiBiT-tagged CK1alpha in HEK293 cells transfected with LgBiT expression vector assessed as ternary complex formation preincubated with MG132 for 30 mins followed by compound addition and measured after 2 hrs by NanoBRET assay; format: cell-based
Target sequence in this assay (P48729 whole entry): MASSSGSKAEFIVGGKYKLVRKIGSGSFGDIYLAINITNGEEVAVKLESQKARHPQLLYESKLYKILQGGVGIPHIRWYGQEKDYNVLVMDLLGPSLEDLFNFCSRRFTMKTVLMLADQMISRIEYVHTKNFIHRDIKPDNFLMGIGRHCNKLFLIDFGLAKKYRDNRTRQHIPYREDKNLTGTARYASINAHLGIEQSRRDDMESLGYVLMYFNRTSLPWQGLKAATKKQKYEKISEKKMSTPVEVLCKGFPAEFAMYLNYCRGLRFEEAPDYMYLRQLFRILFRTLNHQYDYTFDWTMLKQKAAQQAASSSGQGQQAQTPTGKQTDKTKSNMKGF
Target sequence in this assay (Q96SW2 whole entry): as the sequence (Q96SW2 whole entry partner) above

Jurkat = test: Cytotoxicity against human Jurkat cells expressing HiBiT-tagged IKZF1 at 0.0001 to 100 uM measured over 24 hrs by Cell-Titer Glo assay; format: toxicity, cell-based; details: dose 0.0001-100 µM
[6] = Apparent permeability across basolateral to apical side in MDCK-II cells at 10 micromol/L incubated for 1 hrs by UPLC/MS analysis; format: ADME, cell-based, Canis lupus familiaris; details: dog, mdck-ii, 1 h, 10 µM, dose 10 µmol/L
[7] = Volume of distribution at steady state in female CD-1 mouse at 3 mg/kg, iv administered as 5% v/v NMP, 5% v/v solutol HS-15, 20% PEG 400 and 70% v/v normal saline formulation and measured after 24 hrs; format: ADME, organism-based; details: in vivo
Cereblon/Ikaros = Cereblon/Ikaros (Homo sapiens, UniProt Q96SW2+Q13422); test: PROTAC activity at CRBN/HiBiT-tagged IKZF1 in human Jurkat cells transfected with LgBiT expression vector assessed as induction of IKZF1 degradation measured after 24 hrs by luminescence based GloMax Discover assay; format: cell-based
[8] = Metabolic stability in pooled human liver microsomes assessed as half-life at 10 uM measured upto 4 hrs in presence of NADPH by UPLC-MS/MS analysis; format: ADME, Microsome
[9] = molecular target: T1, Cereblon/Casein kinase I alpha; test: Binding affinity to Halo-tagged CRBN (unknown origin)/HiBiT-tagged CK1alpha in HEK293 cells transfected with LgBiT expression vector assessed as ternary complex formation by measuring fold increase in NanoBRET signal preincubated with MG132 for 30 mins followed by compound addition and measured after 2 hrs by NanoBRET assay relative to control; format: cell-based
Target sequence in this assay (P48729 2-337 limits assumed): as the sequence (P48729 2-337 limits assumed) above
Target sequence in this assay (Q96SW2 whole entry partner): as the sequence (Q96SW2 whole entry partner) above

[10] = AUClast in female CD-1 mouse at 3 mg/kg, iv administered as 5% v/v NMP, 5% v/v solutol HS-15, 20% PEG 400 and 70% v/v normal saline formulation and measured after 24 hrs; format: ADME, organism-based; details: in vivo
[11] = AUClast in female CD-1 mouse at 10 mg/kg, po administered as 5% v/v NMP, 5% v/v solutol HS-15, 20% PEG 400 and 70% v/v normal saline formulation and measured after 24 hrs; format: ADME, organism-based; details: in vivo
[12] = Cmax in female CD-1 mouse at 10 mg/kg, po administered as 5% v/v NMP, 5% v/v solutol HS-15, 20% PEG 400 and 70% v/v normal saline formulation and measured after 24 hrs; format: ADME, organism-based; details: in vivo
[13] = Metabolic stability in mouse liver microsomes assessed as half-life at 10 uM measured upto 4 hrs in presence of NADPH by UPLC-MS/MS analysis; format: ADME, Microsome; details: microsomes, 4 h, 10 µM
[14] = molecular target: Protein cereblon/Eukaryotic peptide chain release factor GTP-binding subunit ERF3A (Homo sapiens) (UniProt Q96SW2+P15170); test: PROTAC activity at CRBN (unknown origin)/human HiBiT-tagged GSPT1 transfected in HEK293 cells assessed as induction of GSPT1 degradation measured after 24 hrs by Nano-Glo reagent based luminescence analysis; format: cell-based
Chain of Protein cereblon/Eukaryotic peptide chain release factor GTP-binding subunit ERF3A (Homo sapiens) (P15170 whole entry, looked up): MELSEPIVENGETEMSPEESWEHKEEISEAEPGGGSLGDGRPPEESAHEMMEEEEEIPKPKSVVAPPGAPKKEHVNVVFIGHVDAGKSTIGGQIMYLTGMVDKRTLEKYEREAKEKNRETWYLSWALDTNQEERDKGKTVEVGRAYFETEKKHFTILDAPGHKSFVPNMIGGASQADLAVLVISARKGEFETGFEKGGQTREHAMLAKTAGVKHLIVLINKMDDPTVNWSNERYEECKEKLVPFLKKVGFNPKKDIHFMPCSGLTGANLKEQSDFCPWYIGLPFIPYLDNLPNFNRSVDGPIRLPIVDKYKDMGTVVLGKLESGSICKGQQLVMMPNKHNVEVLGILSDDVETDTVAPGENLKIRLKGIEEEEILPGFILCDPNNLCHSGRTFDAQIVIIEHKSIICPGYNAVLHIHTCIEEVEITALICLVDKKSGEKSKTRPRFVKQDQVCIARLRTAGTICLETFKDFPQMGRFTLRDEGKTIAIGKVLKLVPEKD
Chain of Protein cereblon/Eukaryotic peptide chain release factor GTP-binding subunit ERF3A (Homo sapiens) (Q96SW2 whole entry, looked up): as the sequence (Q96SW2 whole entry partner) above

MOLM-13 [15] = test: Downregulation of CK1alpha protein level in human MOLM-13 cells at 1 uM measured after 4 hrs by TMT-proteomic analysis; format: functional, cell-based
[16] = Apparent permeability across apical to basolateral side in MDCK-II cells at 10 micromol/L incubated for 1 hrs by UPLC/MS analysis; format: ADME, cell-based, Canis lupus familiaris; details: dog, mdck-ii, 1 h, 10 µM, dose 10 µmol/L
[17] = molecular target: T1, Cereblon/Casein kinase I alpha; test: PROTAC activity at CRBN/HiBiT-tagged CK1alpha in HEK293 cells transfected with LgBiT expression vector assessed as induction of CK1alpha degradation by measuring maximal efficacy at 10 uM measured after 24 hrs by luminescence based GloMax Discover assay relative to control; format: cell-based
Target sequence in this assay (P48729 2-337 limits assumed): as the sequence (P48729 2-337 limits assumed) above
Target sequence in this assay (Q96SW2 whole entry partner): as the sequence (Q96SW2 whole entry partner) above

[18] = Tmax in female CD-1 mouse at 10 mg/kg, po administered as 5% v/v NMP, 5% v/v solutol HS-15, 20% PEG 400 and 70% v/v normal saline formulation and measured after 24 hrs; format: ADME, organism-based; details: in vivo
HEK293 = test: Cytotoxicity against HEK293 cells expressing HiBiT-tagged CK1alpha at 0.0001 to 100 uM measured over 24 hrs by Cell-Titer Glo assay; format: toxicity, cell-based; details: human, hek293, 24 h, dose 0.0001-100 µM
[19] = Cmax in female CD-1 mouse at 3 mg/kg, iv administered as 5% v/v NMP, 5% v/v solutol HS-15, 20% PEG 400 and 70% v/v normal saline formulation and measured after 24 hrs; format: ADME, organism-based; details: in vivo
MOLM-13 [20] = test: Antiproliferative activity against human MOLM-13 cells incubated for 72 hrs by Cell-Titer Glo assay; format: functional, cell-based; details: MOLM-13, 72 h
[21] = Half-life in female CD-1 mouse at 3 mg/kg, iv administered as 5% v/v NMP, 5% v/v solutol HS-15, 20% PEG 400 and 70% v/v normal saline formulation and measured after 24 hrs; format: ADME, organism-based; details: in vivo
[22] = molecular target: T1, Cereblon/Casein kinase I alpha; test: PROTAC activity at CRBN/HiBiT-tagged CK1alpha in HEK293 cells transfected with LgBiT expression vector assessed as induction of CK1alpha degradation measured after 24 hrs by luminescence based GloMax Discover assay; format: cell-based
Target sequence in this assay (P48729 whole entry): as the sequence (P48729 whole entry) above
Target sequence in this assay (Q96SW2 whole entry): as the sequence (Q96SW2 whole entry partner) above

[23] = Stability in mouse plasma assessed as half-life at 10 uM measured upto 48 hrs by UPLC-MS/MS analysis; format: ADME, cell-free; details: 48 h, 10 µM
[24] = Clearance in female CD-1 mouse assessed as hepatic blood flow at 3 mg/kg, iv administered as 5% v/v NMP, 5% v/v solutol HS-15, 20% PEG 400 and 70% v/v normal saline formulation and measured after 24 hrs; format: ADME, organism-based; details: in vivo

Q: What does the source list for O=C1CCC(N2Cc3cc(NC(=O)c4cccc(F)c4)ccc3C2=O)C(=O)N1 (configuration not stated)?
A: t1/2 [1]: 10.6 h; F [2]: 41%; Activity [3]: 1.3 h⁻¹; solubility [4]: 19 µM (≈ 7.25 µg/mL); EC50 [5]: 119 nM; Activity (Jurkat): Non-Toxic; Papp [6]: 1.8 ×10⁻⁶ cm/s; Vdss [7]: 0.88 L/kg; Activity (Cereblon/Ikaros): inactive; t1/2 [8]: > 10 h; fold change (FC) [9]: 7.4; AUClast [10]: 2049 ng·h/mL; AUClast [11]: 2804 ng·h/mL; Cmax [12]: 1617 ng/mL; t1/2 [13]: > 10 h; Activity [14]: inactive; Activity (MOLM-13 [15]): Active; Papp [16]: 0.6 ×10⁻⁶ cm/s; Emax [17]: 88%; Tmax [18]: 0.25 h; Activity (HEK293): Non-Toxic; Cmax [19]: 6450 ng/mL; IC50 (MOLM-13 [20]): 28 nM; t1/2 [21]: 1.19 h; DC50 [22]: 4 nM; t1/2 [23]: 10 h; QH [24]: 27%

— ChEMBL document CHEMBL6071193, “Structure-Activity Relationship of Potent, Selective, and Orally Bioavailable Molecular Glue Degraders of CK1α” (ACS Med Chem Lett, 2024)
